# Measured values as given in patent US20260042769A1, “TRIARYL AGONISTS OF ALPHA-2 ADRENERGIC RECEPTORS” (ALCEPTOR THERAPEUTICS, INC., priority 2023, published 2026).
# Molecular target: T1, human ADRA2B receptor (Homo sapiens, UniProt P18089)
# T1 construct: expressed in transfected cells
# T1 sequence (P18089 1-450): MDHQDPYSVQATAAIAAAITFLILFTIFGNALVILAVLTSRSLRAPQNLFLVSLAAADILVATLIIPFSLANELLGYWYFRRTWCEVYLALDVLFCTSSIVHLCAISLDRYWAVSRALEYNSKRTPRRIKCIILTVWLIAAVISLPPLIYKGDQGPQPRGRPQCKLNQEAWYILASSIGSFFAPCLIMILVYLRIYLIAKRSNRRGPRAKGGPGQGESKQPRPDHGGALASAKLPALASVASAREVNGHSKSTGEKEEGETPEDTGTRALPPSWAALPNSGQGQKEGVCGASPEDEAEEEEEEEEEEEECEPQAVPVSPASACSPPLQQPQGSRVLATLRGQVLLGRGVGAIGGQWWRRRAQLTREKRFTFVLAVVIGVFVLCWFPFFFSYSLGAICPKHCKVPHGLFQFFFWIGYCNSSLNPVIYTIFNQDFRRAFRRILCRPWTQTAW
# Assay: ADRA2B arrestin agonist assay
# Type: cell-based
# Settings: CHO-K1 cells stably expressing human ADRA2B; read-out: Beta-Arrestin - Human Alpha2B EC50
# Summary of the method: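 CHO-K1 cells stably expressing human ADRA2B, thawed from frozen stock and plated overnight, were treated with agonist for 2 h at 37 °C. Arrestin recruitment detected by luminescence after 2 h with detection reagents at room temperature.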
row,Structure (SMILES),EC50 [nM]
1,"COc1nccc(CC(c2cccc(Cl)c2)c2c[nH]cn2)n1 (stereo not drawn) [Compound 340, 4-[2-(m-chlorophenyl)-2-(4-imidazolyl)ethyl]-2-methoxypyrimidine]",50 to 500
2,"Cc1cccc(C(Cc2ccn3ccnc3c2)c2c[nH]cn2)c1C (stereo not drawn) [Compound 403, 4-[2-(1,3a-diaza-6-indenyl)-1-(2,3-xylyl)ethyl]imidazole]",10 to 50
3,"CN1CCc2cccc(C(Cc3cn(C)nn3)c3c[nH]cn3)c21 (stereo not drawn) [Compound 387, 4-[2-(4-imidazolyl)-2-(1-methyl-7-indolinyl)ethyl]-1-methyl-1H-1,2,3-triazole]",50 to 500
4,"Cc1cccc(C(Cc2cncc(F)c2)c2c[nH]cn2)c1F (stereo not drawn) [Compound 322, 4-[2-(5-fluoro-3-pyridyl)-1-(2-fluoro-3-tolyl)ethyl]imidazole]",10 to 50
5,"Cc1cccc(C[C@H](c2c[nH]cn2)c2cccc3c2OCC3)n1 [Compound 266, 4-[(S)-1-(2,3-dihydro-1-benzofuran-7-yl)-2-(6-methyl-2-pyridyl)ethyl]imida-]",> 500
6,"Cc1cc(C[C@H](c2c[nH]cn2)c2cccc(C)c2F)ncn1 [Compound 144, 4-[(S)-2-(2-fluoro-3-tolyl)-2-(4-imidazolyl)ethyl]-6-methylpyrimidine]",> 500
7,"Cc1cccc(C(Cc2ccnn2C)c2c[nH]cn2)c1Cl (stereo not drawn) [Compound 399, 5-[2-(2-chloro-3-tolyl)-2-(4-imidazolyl)ethyl]-1-methylpyrazole]",< 10
8,"Cc1cc(CC(c2c[nH]cn2)c2cccc(C)c2C)nc(C)n1 (stereo not drawn) [Compound 316, 4-[2-(4-imidazolyl)-2-(2,3-xylyl)ethyl]-2,6-dimethylpyrimidine]",< 10
9,"COc1c(C)cccc1C(Cc1cc(C)ncn1)c1c[nH]cn1 (stereo not drawn) [Compound 276, 4-[2-(4-imidazolyl)-2-(2-methoxy-3-tolyl)ethyl]-6-methylpyrimidine]",50 to 500
10,"COc1nccc(C[C@H](c2c[nH]cn2)c2cccc(C)c2OC)n1 [Compound 180, 4-[(S)-2-(4-imidazolyl)-2-(2-methoxy-3-tolyl)ethyl]-2-methoxypyrimidine]",> 500
11,"Cc1nc(CC(c2c[nH]cn2)c2cccc(C)c2C)no1 (stereo not drawn) [Compound 243, 3-[2-(4-imidazolyl)-2-(2,3-xylyl)ethyl]-5-methyl-1,2,4-oxadiazole-formic acid (1/1)]",50 to 500
12,"COc1cc(Cl)cc(CC(c2c[nH]cn2)c2cccc3c2OCC3)n1 (stereo not drawn) [Compound 393, 4-[2-(4-chloro-6-methoxy-2-pyridyl)-1-(2,3-dihydro-1-benzofuran-7-yl)ethyl]imidazole]",10 to 50
13,"Cc1cccc([C@H](Cc2ccn(C(F)F)n2)c2c[nH]cn2)c1C [Compound 280, 3-[(S)-2-(4-imidazolyl)-2-(2,3-xylyl)ethyl]-1-(difluoromethyl)pyrazole]",< 10
14,"Cc1cccc(C(Cc2ccncc2F)c2c[nH]cn2)c1C (stereo not drawn) [Compound 394, 4-[2-(3-fluoro-4-pyridyl)-1-(2,3-xylyl)ethyl]imidazole]",< 10
15,"Cc1cccc([C@H](Cc2ccn(C3COC3)n2)c2c[nH]cn2)c1C [Compound 296, 3-[(S)-2-(4-imidazolyl)-2-(2,3-xylyl)ethyl]-1-(3-oxetanyl)pyrazole]",10 to 50
16,"c1cc2c(c([C@@H](Cc3cc[nH]n3)c3c[nH]cn3)c1)OCC2 [Compound 237, 3-[(R)-2-(2,3-dihydro-1-benzofuran-7-yl)-2-(4-imidazolyl)ethyl]pyrazole]",> 500
17,"Fc1c(Cl)cccc1C(Cc1cc[nH]n1)c1c[nH]cn1 (stereo not drawn) [Compound 251, 3-[2-(3-chloro-2-fluorophenyl)-2-(4-imidazolyl)ethyl]py-razole]",50 to 500
18,"COc1nccc(C[C@@H](c2c[nH]cn2)c2cccc(C)c2OC)n1 [Compound 179, 4-[(R)-2-(4-imidazolyl)-2-(2-methoxy-3-tolyl)ethyl]-2-methoxypyrimidine]",< 10
